Key:
Type in all cases: physicochemical
[1] = Mechanical pressure analysis of polymorphs (CARVER press, XRD); conditions: approximately 15,000 psi for approximately 20 seconds
Method: Batches of 3-phenyl-5-(thiophen-2-yl)-1,2,4-oxadiazole polymorphic Forms I and II were placed in a CARVER press and compressed at approximately 15,000 psi for approximately 20 seconds in two separate experiments. XRD analysis was performed on the samples. The resulting XRD pattern matched the starting material in both experiments, as shown in FIGS. 5A and 5B for Forms I and II, respectively. […] The Form II used in this experiment was obtained by recrystallization from the melt of Form I, as described in Example 14, above.

[2] = Storage stability of polymorphs (humidity chambers / ambient, XRD)
From the text: To determine the storage stability and/or hydrate formation of 3-phenyl-5-(thiophen-2-yl)-1,2,4-oxadiazole Form I material during storage at ambient conditions, samples were monitored in two static humidity chambers. […] Solutions of saturated potassium chloride (84% RH) and sodium chloride (75% RH) salts at ambient temperature were used.

[3] = Grinding analysis of polymorphs (ball mill, XRD); conditions: ball mill 2 minutes at 4800 oscillations per minute
Method: Batches of 3-phenyl-5-(thiophen-2-yl)-1,2,4-oxadiazole polymorphic Forms I and II were ground using a CRESCENT WIG-L-BUG ball mill for 2 minutes at 4800 oscillations per minute (3.2 m/s) in two separate experiments. […] The Form II used in this experiment was obtained by recrystallization from the melt of Form I, as described in Example 14, above, […]

[4] = Estimation of polymorph transition temperature from DSC data; conditions: calculated from DSC thermal data
Method: Polymorphic Forms I and II of 3-phenyl-5-(thiophen-2-yl)-1,2,4-oxadiazole, as well as a 50/50 mixture thereof, were analyzed by DSC at a slow heating rate of 2° C. per minute, with similar sample sizes. […] Form II has a higher melting temperature and a lower enthalpy of fusion. […] FIGS. 9A through 9C show the relevant DSC thermograms for Form I, Form II, and a mixture of Forms I and II, respectively.
The thermal data using the procedure set forth above was used to calculate an approximate value for the transition temperature of conversion of Forms I and II, resulting in an estimated transition temperature value of 102° C.

SMILES	polymorphic change under mechanical pressure (XRD) [1]	storage stability / hydrate formation (XRD) ([2]; 75 and 84% RH, ambient temperature, 4 weeks)	polymorphic transformation on grinding (XRD) [3]	storage stability (XRD) ([2]; scintillation vial, ambient conditions, approximately 6 days)	transition temperature between Forms I and II [4]
c1ccc(-c2noc(-c3cccs3)n2)cc1 [Form I, 3-phenyl-5-(thiophen-2-yl)-1,2,4-oxadiazole]	did not reveal any changes in the polymorphic form	does not form a hydrate and appears to be thermodynamically stable over time	no transformation was observed	–	–
c1ccc(-c2noc(-c3cccs3)n2)cc1 [Form II, 3-phenyl-5-(thiophen-2-yl)-1,2,4-oxadiazole]	did not reveal any changes in the polymorphic form	–	transformed to Form I	showed signs of transformation to Form I	–
c1ccc(-c2noc(-c3cccs3)n2)cc1 [Ia-i, 3-phenyl-5-(thiophen-2-yl)-1,2,4-oxadiazole]	–	–	–	–	approximately 102 °C
